Results as given in publication PMC4957648 (Journal of medicinal chemistry, 2016).
Converted amounts (≈) assume the structure as drawn. Values belong to the compound of their own block, whether it stands above or below them.

What was measured:
[1] = system: thyroid hormone receptor; test: Thyroid hormone activity assay, agonist mode; type: cell-based; conditions: for EC50: read-out: TR agonist EC50, GH3.TRE-Luc cells
[2] = Human liver microsomal stability; type: in vitro ADME; conditions: liver microsomes
[3] = biological target: T1, Cif (Pseudomonas aeruginosa, UniProt A0A0H2ZD27); test: Fluorescent-based Cif inhibitory assay; type: biochemical
[4] = biological target: T1, Cif; test: Surface plasmon resonance binding to immobilized Cif
[5] = biological target: T2, Human sEH (Homo sapiens, UniProt P34913); test: biochemical
T2 sequence (P34913 1-555): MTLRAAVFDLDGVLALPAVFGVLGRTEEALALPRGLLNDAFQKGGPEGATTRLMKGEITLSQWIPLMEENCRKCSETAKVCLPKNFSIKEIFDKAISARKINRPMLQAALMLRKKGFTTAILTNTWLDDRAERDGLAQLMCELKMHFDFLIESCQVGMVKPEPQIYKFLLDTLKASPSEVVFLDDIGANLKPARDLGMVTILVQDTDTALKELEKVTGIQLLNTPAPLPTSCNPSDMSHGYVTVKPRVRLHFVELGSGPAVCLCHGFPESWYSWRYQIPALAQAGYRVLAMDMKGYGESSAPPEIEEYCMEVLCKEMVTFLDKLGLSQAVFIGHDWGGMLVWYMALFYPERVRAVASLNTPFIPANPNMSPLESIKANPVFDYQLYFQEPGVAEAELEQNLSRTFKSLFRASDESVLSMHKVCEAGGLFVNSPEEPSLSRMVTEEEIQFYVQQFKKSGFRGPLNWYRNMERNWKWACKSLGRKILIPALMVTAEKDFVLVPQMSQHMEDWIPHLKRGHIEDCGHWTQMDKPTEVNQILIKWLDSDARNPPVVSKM

[6] = system: GH3.TRE-Luc cells; test: Cytotoxicity in GH3.TRE-Luc cells; type: cell-based; conditions: concentrations up to 10 μM
[7] = system: polarized monolayers of airway epithelial cells; test: Cytotoxicity in polarized airway epithelial monolayers; type: cell-based; conditions: concentrations up to 10 μM
[8] = Solubility under Cif assay conditions; type: physicochemical
[9] = system: CFTR; conditions: from purified Cif protein and P. aeruginosa PA14; ref 5b; cited from earlier work

T1 sequence (A0A0H2ZD27 25-319 limits assumed): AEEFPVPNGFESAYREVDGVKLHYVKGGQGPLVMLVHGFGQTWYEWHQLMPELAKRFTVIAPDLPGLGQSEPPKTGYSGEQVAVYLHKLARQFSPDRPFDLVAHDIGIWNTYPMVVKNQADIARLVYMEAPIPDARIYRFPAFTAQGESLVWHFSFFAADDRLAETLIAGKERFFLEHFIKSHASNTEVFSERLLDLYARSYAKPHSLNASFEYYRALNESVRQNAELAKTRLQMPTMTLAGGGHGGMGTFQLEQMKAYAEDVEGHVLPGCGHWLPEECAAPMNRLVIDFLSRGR

thyroid hormone activity (compounds with different R1) [1]: lowest thyroid hormone activity
Structure (SMILES): CCC(=O)Nc1cc(Br)c(Oc2ccc(O)c(C(C)C)c2)c(Br)c1 [Compound 1c]

half-life [2]: > 60 min
Structure (SMILES): CCC(=O)Nc1cc(Cl)c(Oc2ccc(O)c(-c3ccccc3)c2)c(Cl)c1 [Compound 8a]

Structure (SMILES): CCC(=O)Nc1cc(Cl)c(Oc2ccc(O)c(-c3ccc(C(C)=O)cc3)c2)c(Cl)c1 [Compound 8j]
increase in Cif inhibitory potency over lead compound [3]: ~10 fold
EC50 [1]: > 10 µM
residence time [4]: 0.0333 to 0.0667 min

Structure (SMILES): CCC(=O)Nc1cc(Cl)c(Oc2ccc(O)c(-c3ccc(NC(N)=O)cc3)c2)c(Cl)c1 [Compound 8h]
increase in Cif inhibitory potency over lead compound [3]: ~10 fold
EC50 [1]: > 10 µM
IC50 [5]: ~8 µM
residence time [4]: 0.0333 to 0.0667 min
cytotoxicity [6]: neither 8c nor 8h showed cytotoxicity
cytotoxicity [7]: neither 8c nor 8h showed cytotoxicity

Structure (SMILES): CCOC(=O)CC(=O)Nc1cc(Br)c(Oc2cccc(C(C)C)c2)c(Br)c1 [Compound 1g]
Cif inhibitory activity ([3]; at 50 μM or 25 μM): failed to show inhibitory activity
solubility [8]: 50 to 100 µM (≈ 25 to 49.9 µg/mL)

Structure (SMILES): O=C(O)Cc1cc(I)c(Oc2ccc(O)c(I)c2)c(I)c1 [tiratricol]
protection of CFTR [9]: protects CFTR

Structure (SMILES): CCOC(=O)CC(=O)Nc1cc(Br)c(Oc2ccc(OC)c(C(C)C)c2)c(Br)c1 [Compound 1h]
Cif inhibitory activity ([3]; at 50 μM or 25 μM): failed to show inhibitory activity
solubility [8]: 25 to 50 µM (≈ 13.2 to 26.5 µg/mL)

Structure (SMILES): CCC(=O)Nc1cc(Cl)c(Oc2ccc(O)c(-c3ccc(C(N)=O)cc3)c2)c(Cl)c1 [Compound 8c, 5′-(2,6-Dichloro-4-propionamidophenoxy)-2′-hydroxy-[1,1′-biphenyl]-4-carboxamide]
increase in Cif inhibitory potency over lead compound [3]: ~10 fold
EC50 [1]: > 10 µM
IC50 [5]: ~8 µM
residence time [4]: 0.0333 to 0.0667 min
cytotoxicity [6]: neither 8c nor 8h showed cytotoxicity
cytotoxicity [7]: neither 8c nor 8h showed cytotoxicity

Structure (SMILES): CCOC(=O)CC(=O)Nc1cc(Cl)c(Oc2ccc(O)cc2)c(Cl)c1 [Compound 1k]
Cif inhibitory activity ([3]; at 50 μM): no inhibition
solubility [8]: 50 to 100 µM (≈ 19.2 to 38.4 µg/mL)
